This passage reports Ki results from US9206164B2, “Pyrazole compounds as CRTH2 antagonists” (Boehringer Ingelheim International GmbH, priority 2011, dated 2015).

This test deals with human CRTH2 receptor (Homo sapiens (Human), UniProt Q9Y5Y4). Nature of the test: CRTH2 receptor radioligand binding assay (SPA, [3H]-PGD2 displacement). The settings on record: antagonistic activities of selected compounds. The protocol: The binding of CRTH2 antagonists is determined using membranes prepared from Chinese hamster ovary cells (CHO-K1 cells) transfected with the human CRTH2 receptor (CHO-K1-hCRTH2 cells, Perkin Elmer, Cat No ES-561-C). To produce cell membranes the CHO-K1-hCRTH2 cells are cultured in suspension in CHO SFMII medium supplemented with 400 μg/ml G418. The cells are harvested by centrifugation at 300 g for 10 min at room temperature. The cell pellet is resuspended in Phosphate Buffer Saline (PBS) including a protease inhibitor mix (Complete, Roche) and adjusted to a concentration of 10E7 cells/ml. The CHO-K1-hCRTH2 cells are disrupted by nitrogen […] to obtain the membrane preparation. Cell debris is removed by centrifugation (500 g at 4° C., 30 min) and the supernatant is transferred into fresh tubes followed by a second centrifugation at 40000 g for 1 h at 4° C. to sediment the membranes. The membranes are suspended in SPA incubation buffer (50 mM Tris HCl, 10 mM MgCl2, 150 mM NaCl, 1 mM EDTA, pH 7.4) without bovine serum albumin, homogenized by passing through a single use needle (Terumo, 23G×1″), and stored in aliquots at −80° C.
human CRTH2 receptor, sequence (Q9Y5Y4 whole entry): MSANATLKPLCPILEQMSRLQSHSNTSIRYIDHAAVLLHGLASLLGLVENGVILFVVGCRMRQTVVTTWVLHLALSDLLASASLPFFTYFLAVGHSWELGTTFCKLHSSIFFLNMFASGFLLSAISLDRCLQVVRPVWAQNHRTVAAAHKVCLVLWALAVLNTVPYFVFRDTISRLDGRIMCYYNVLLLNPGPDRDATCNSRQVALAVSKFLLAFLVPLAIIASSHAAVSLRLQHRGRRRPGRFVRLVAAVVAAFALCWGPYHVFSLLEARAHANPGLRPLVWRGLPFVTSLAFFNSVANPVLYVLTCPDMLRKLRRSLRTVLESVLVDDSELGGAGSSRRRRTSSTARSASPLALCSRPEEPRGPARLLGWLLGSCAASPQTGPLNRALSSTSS
The CRTH2 receptor binding assay is performed in a scintillation proximity assay (SPA) format with the radioligand [^3H]-PGD2 (Perkin Elmer, NET616000MC). CHO-K1-hCRTH2 cell membranes are again homogenized by passing through a single use needle (Terumo, 23G×1″) and diluted in SPA incubation buffer in suitable concentrations (0.5-10 μg protein/well). The SPA assay is set up in 96 well microtiter plates (Perkin Elmer, CatNo. 6005040) in SPA incubation buffer with a final volume of 200 μl per well and final concentration of 50 mM Tris-HCl, 10 mM MgCl2, 150 mM NaCl, 1 mM EDTA pH 7.4, 0.1% bovine serum albumin). The SPA assay mixture contains 60 μl of the membrane suspension, 80 μl of Wheat Germ Agglutinin coated PVT beads (GE Healthcare, RPNQ-0001, 0.3 mg/well), 40 μl of [^3H]-PGD2 diluted in SPA buffer to a final concentration of 1 nM (50 000 dpm) and 20 μl of the test compound (dissolved in dimethylsulfoxid). The SPA assay mixture is incubated for 3 h at room temperature. Bound radioactivity is determined with a scintillation counter (Micro Beta Trilux, Wallac).
The binding of [^3H]-PGD2 to CHO-K1-hCRTH2 cell membranes is determined in the absence (total binding, Bo) and presence (non-specific binding, NSB) of unlabelled PGD2 (1 μM, Cayman Chemical, Cat No 12010) or a reference CRTH2 antagonist (10 μM CAY10471, Cayman Chemical, Cat No 10006735).
Determination of the affinity of a test compound is calculated by subtraction of the non-specific binding (NSB) from the total binding (Bo) or the binding in the presence of the test compound (B) at a given compound concentration. The NSB value is set to 100% inhibition. The Bo−NSB value is set to 0% inhibition.
% inhibition values were obtained at a defined compound concentration, e.g. at 1 μM, % inhibition of the test compound was calculated by the formula 100−((B−NSB)*100/(Bo−NSB)). % inhibition values above 100% are founded by assay variance.
As a reminder, the Ki is a dissociation constant, usually derived from enzyme kinetics or from competition with a known ligand. A higher Ki goes with weaker binding. In the case of `CCc1nn(Cc2ccc(-c3nc4cc(Cl)ccc4[nH]3)cc2)c(CC)c1CC(=O)O` [Compound 45], the Ki came out at 0.3 nM.
For the molecule `CCc1nn(Cc2ccc(-c3nc4c(F)cccc4[nH]3)cc2F)c(CC)c1CC(=O)O` [Compound 74], affinity was put at a Ki of 1.2 nM.
As for `Cc1nn(Cc2ccc(-c3cc4ncccc4[nH]3)cc2)c(C)c1CC(=O)O` [Compound 10], the figure is 308 nM.
As for `CCc1nn(Cc2ccc(-c3nc4cc(Cl)cnc4[nH]3)cc2)c(CC)c1CC(=O)O` [Compound 42], the figure is 1.7 nM; as for `Cc1nn(Cc2ccc(-c3cc4ccc(C(F)(F)F)cc4[nH]3)cc2C(F)(F)F)c(C)c1CC(=O)O` [Compound 11], 0.7 nM; as for `COc1ccc2[nH]c(-c3ccc(Cn4nc(C)c(CC(=O)O)c4C)cc3)nc2c1` [Compound 59], 7.6 nM.
As for `CCc1nn(Cc2ccc(-c3nc4cc(F)c(Cl)cc4[nH]3)cc2F)c(CC)c1CC(=O)O` [Compound 76], the affinity corresponds to a Ki of 0.6 nM.
As for `CCc1nn(Cc2ccc(-c3nc4cc(C(C)(C)C)ccc4[nH]3)cc2)c(CC)c1CC(=O)O` [Compound 68], the figure is 0.2 nM; as for `CCc1nn(Cc2ccc(-c3nc4cc(Br)cnc4[nH]3)cc2F)c(CC)c1CC(=O)O` [Compound 89], 2.6 nM; as for `CCc1nn(Cc2ccc(-c3nc4cc(OC)ccc4[nH]3)cc2)c(CC)c1CC(=O)O` [Compound 39], 1.3 nM.
As for `CCc1nn(Cc2ccc(-c3nc4cc(C)c(Cl)cc4[nH]3)cc2F)c(CC)c1CC(=O)O` [Compound 106], the figure is 0.3 nM; as for `Cc1nn(Cc2ccc(-c3cc4cc(C(F)(F)F)ccc4[nH]3)cc2)c(C)c1CC(=O)O` [Compound 2], 11.3 nM; as for `CCc1nn(Cc2ccc(-c3nc4cc5ccccc5cc4[nH]3)cc2)c(CC)c1CC(=O)O` [Compound 19], 0.1 nM.
`Cc1nn(Cc2ccc(-c3nc4cc(Cl)ccc4[nH]3)cc2)c(C)c1CC(=O)O` [Compound 24]: the affinity corresponds to a Ki of 1.9 nM.
Consider `CCc1nn(Cc2ccc(-c3nc4ccccc4n3C)cc2)c(CC)c1CC(=O)O` [Compound 46], for which the Ki was 340 nM.
Take `Cc1nn(Cc2ccc(-c3cc4cccnc4[nH]3)cc2F)c(C)c1CC(=O)O` [Compound 12]: the Ki came to 155 nM.
The value for `CCc1nn(Cc2ccc(-c3nc4cc(C#N)ccc4[nH]3)cc2)c(CC)c1CC(=O)O` [Compound 34] was 3.7 nM; that for `Cc1nn(Cc2ccc(-c3nc4ccncc4[nH]3)cc2)c(C)c1CC(=O)O` [Compound 60] was 299 nM.
`Cc1nn(Cc2ccc(-c3nc4cc(Cl)ccc4[nH]3)cc2F)c(C)c1CC(=O)O` [Compound 108] yielded a Ki of 2.3 nM.
The value for `Cc1nn(Cc2ccc(-c3nc4cc(C(C)(C)C)ccc4[nH]3)cc2)c(C)c1CC(=O)O` [Compound 33] was 0.5 nM; that for `Cc1nn(Cc2ccc(-c3nc4cc(Cl)c(Cl)cc4[nH]3)cc2)c(C)c1CC(=O)O` [Compound 17] was 1.2 nM; that for `CCc1nn(Cc2ccc(-c3nc4cc(F)c(Cl)cc4[nH]3)cc2)c(CC)c1CC(=O)O` [Compound 27] was 0.4 nM.
In turn, `CCc1nn(Cc2ccc(-c3nc4c(F)c(F)ccc4[nH]3)cc2)c(CC)c1CC(=O)O` [Compound 43] registered a Ki of 1.1 nM.
`CCc1nn(Cc2ccc(-c3nc4cc(F)ccc4[nH]3)cc2F)c(CC)c1CC(=O)O` [Compound 82] displayed a Ki of 1 nM.
The value for `Cc1nn(Cc2cccc(-c3nc4cc(C(F)(F)F)ccc4[nH]3)c2)c(C)c1CC(=O)O` [Compound 110] was 287 nM; that for `Cc1nn(Cc2ccc(-c3nc4cc(F)ccc4[nH]3)cc2F)c(C)c1CC(=O)O` [Compound 86] was 6.5 nM.
For `CCc1nn(Cc2ccc(-c3nc4cncc(C)c4[nH]3)cc2F)c(CC)c1CC(=O)O` [Compound 103], the affinity, expressed as Ki, was 87.6 nM.
The value for `Cc1nn(Cc2ccc(-c3nc4cncnc4[nH]3)cc2)c(C)c1CC(=O)O` [Compound 70] was 432 nM; that for `CCc1nn(Cc2ccc(-c3nc4cc(C(C)(C)C)ccc4[nH]3)cc2F)c(CC)c1CC(=O)O` [Compound 98] was 0.1 nM.
Molecule “(3,5-Diethyl-1-[2-fluoro-4-(3H-imidazo[4,5-b]pyridin-2-yl)benzyl]-1H-pyrazol-4-yl)acetic Acid [Compound 13]” displayed a Ki of 16.2 nM.
The value for `Cc1ccc2[nH]c(-c3ccc(Cn4nc(C)c(CC(=O)O)c4C)cc3)nc2c1` [Compound 41] was 4.8 nM; that for `Cc1nn(Cc2cccc(-c3cc4ccc(C(F)(F)F)cc4[nH]3)c2)c(C)c1CC(=O)O` [Compound 9] was 97.8 nM.
As for `Cc1nn(Cc2ccc(-c3nc4cc5ccccc5cc4[nH]3)cc2)c(C)c1CC(=O)O` [Compound 18], the figure is 0.8 nM; as for `CCc1nn(Cc2ccc(-c3nc4ccccc4[nH]3)cc2)c(CC)c1CC(=O)O` [Compound 15], 2.3 nM; as for `Cc1nn(Cc2ccc(-c3nc4cc(Br)ccc4[nH]3)cc2)c(C)c1CC(=O)O` [Compound 32], 1.2 nM.
As for `CCc1nn(Cc2ccc(-c3nc4cc(Cl)cnc4[nH]3)cc2F)c(CC)c1CC(=O)O` [Compound 95], the figure is 5.1 nM; as for `Cc1nn(Cc2ccc(-c3nc4c(F)c(F)ccc4[nH]3)cc2)c(C)c1CC(=O)O` [Compound 47], 4.9 nM.
Molecule `CCc1nn(Cc2ccc(-c3nc4c(C)cccc4[nH]3)cc2F)c(CC)c1CC(=O)O` [Compound 83] showed a Ki of 1.3 nM.
As for `CCc1nn(Cc2ccc(-c3nc4c(C)cccc4[nH]3)cc2)c(CC)c1CC(=O)O` [Compound 51], the figure is 2.2 nM; as for `CCc1nn(Cc2ccc(-c3nc4cc(Cl)ccc4[nH]3)cc2F)c(CC)c1CC(=O)O` [Compound 80], 0.5 nM; as for `Cc1nn(Cc2ccc(-c3nc4cc(C#N)ccc4[nH]3)cc2F)c(C)c1CC(=O)O` [Compound 78], 21.7 nM.
The molecule `CCc1nn(Cc2ccc(-c3nc4ccncc4[nH]3)cc2F)c(CC)c1CC(=O)O` [Compound 90] yielded a Ki of 60.9 nM.
The value for `Cc1nn(Cc2ccc(-c3nc4c(C)cccc4[nH]3)cc2F)c(C)c1CC(=O)O` [Compound 93] was 12.8 nM; that for `CCc1nn(Cc2ccc(-c3nc4c(F)cccc4[nH]3)cc2)c(CC)c1CC(=O)O` [Compound 67] was 1.7 nM; that for `CCc1nn(Cc2ccc(-c3nc4cc(Br)cnc4[nH]3)cc2)c(CC)c1CC(=O)O` [Compound 57] was 1.5 nM.
The value for `Cc1nn(Cc2ccc(-c3nc4c(F)cc(F)cc4[nH]3)cc2F)c(C)c1CC(=O)O` [Compound 77] was 5.5 nM.
Regarding `Cc1ccc2[nH]c(-c3ccc(Cn4nc(C)c(CC(=O)O)c4C)c(F)c3)nc2c1` [Compound 91], affinity was put at a Ki of 3.7 nM.
As for `COc1ccc2[nH]c(-c3ccc(Cn4nc(C)c(CC(=O)O)c4C)c(F)c3)nc2n1` [Compound 92], the figure is 0.7 nM.
As for `CCc1nn(Cc2ccc(-c3nc4cc(Cl)ccc4n3C)cc2)c(CC)c1CC(=O)O` [Compound 69], the figure is 61.2 nM.
As to `Cc1nn(Cc2ccc(-c3nc4cc(F)ccc4[nH]3)cc2)c(C)c1CC(=O)O` [Compound 71], the affinity corresponds to a Ki of 8.5 nM.
The molecule `Cc1nn(Cc2cccc(-c3cc4ccc(Cl)cc4[nH]3)c2)c(C)c1CC(=O)O` [Compound 7] came in with an inhibitory constant (Ki) of 397 nM.
As for `CCc1nn(Cc2ccc(-c3nc4cncc(C)c4[nH]3)cc2)c(CC)c1CC(=O)O` [Compound 26], the figure is 22.6 nM; as for `CCc1nn(Cc2ccc(-c3nc4cncnc4[nH]3)cc2)c(CC)c1CC(=O)O` [Compound 37], 85.4 nM.
Consider `CCc1nn(Cc2ccc(-c3nc4c(F)cc(F)cc4[nH]3)cc2F)c(CC)c1CC(=O)O` [Compound 101], for which affinity was put at a Ki of 1.1 nM.
Take `Cc1nn(Cc2ccc(-c3nc4cc(Cl)cnc4[nH]3)cc2F)c(C)c1CC(=O)O` [Compound 100]: the inhibition constant Ki was determined as 18.5 nM.
As for `Cc1cc2nc(-c3ccc(Cn4nc(C)c(CC(=O)O)c4C)c(F)c3)[nH]c2cc1Cl` [Compound 109], the figure is 1.8 nM.
